Data from article PMC8352664 (The Journal of Biological Chemistry, 2021).

Tests used:
Assay type in all cases: binding, human
TRAV12-1 TCR NR1C = details: pH 7.5
TRAV12-2 TCR NR2F = details: pH 7.5
TRAV12-1 TCR NR1A = details: pH 7.5
TRAV12^+ TCRs = test system: TRAV12^+ TCRs
TRAV12-1 TCR NR1D = details: pH 7.5

In the case of TLDPRSFLL [PAR1], the “KD, NR1C” value (TRAV12-1 TCR NR1C) is reported as “N.B” and the “KD, NR2F” value (TRAV12-2 TCR NR2F) is reported as “N.B”.

YLQPSTFLL [S^269–277R273S] was tested, and the “KD, NR1A” value (TRAV12-1 TCR NR1A) was “N.B”, the “KD, NR1C” value (TRAV12-1 TCR NR1C) was “N.B” and the “KD, NR2F” value (TRAV12-2 TCR NR2F) was “N.B”. The “TCR binding to HLA-A2 presenting the changed epitope” value (TRAV12^+ TCRs) was “completely abrogated TCR binding” and the “KD, NR1D” value (TRAV12-1 TCR NR1D) was “N.B”.
